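Growth conditions: 96-well plates. Treatment: test compound, 48 hours, 5 concentrations. Analysis: linear interpolation between bracketing concentrations; unreached endpoints set to highest concentration. GI50 = concentration required for 50% inhibition of growth.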 The source made the active and inactive calls. Cut-off read from the data, not from the text of the source: active = GI50 up to about 1.1 µM and inactive = higher.
Tests used:
Assay in all cases: DTP human tumour cell line panel, 48 h
NCI-H226 = system: NCI-H226
OVCAR-3 = system: OVCAR-3
EKVX = system: EKVX
LOX IMVI = system: LOX IMVI
SN12C = system: SN12C
HCT-116 = system: HCT-116
BT-549 = system: BT-549
PC-3 = system: PC-3
Hs-578T = system: Hs-578T
A549 = system: A549
OVCAR-8 = system: OVCAR-8
MCF7 = system: MCF7
TK-10 = system: TK-10
M14 = system: M14
HOP-92 = system: HOP-92
786-0 = system: 786-0
CCRF-CEM = system: CCRF-CEM
U-251 = system: U-251
UACC-62 = system: UACC-62
NCI-H522 = system: NCI-H522
DU-145 = system: DU-145
SF-268 = system: SF-268
SNB-19 = system: SNB-19
HL-60 = system: HL-60
CAKI-1 = system: CAKI-1
MDA-MB-435 = system: MDA-MB-435
RXF 393 = system: RXF 393
COLO 205 = system: COLO 205
HOP-62 = system: HOP-62
NCI/ADR-RES = system: NCI/ADR-RES
MOLT-4 = system: MOLT-4
UACC-257 = system: UACC-257
SNB-75 = system: SNB-75
T47D = system: T47D
OVCAR-5 = system: OVCAR-5
IGROV-1 = system: IGROV-1
HCC 2998 = system: HCC 2998
A498 = system: A498
MDA-MB-231 = system: MDA-MB-231
Malme-3M = system: Malme-3M
OVCAR-4 = system: OVCAR-4
NCI-H23 = system: NCI-H23
SF-295 = system: SF-295
NCI-H460 = system: NCI-H460
SW-620 = system: SW-620
MDA-N = system: MDA-N
RPMI-8226 = system: RPMI-8226
SF-539 = system: SF-539
K562 = system: K562
ACHN = system: ACHN
SK-OV-3 = system: SK-OV-3
UO-31 = system: UO-31
SK-MEL-5 = system: SK-MEL-5
KM12 = system: KM12
SK-MEL-28 = system: SK-MEL-28
SK-MEL-2 = system: SK-MEL-2
HCT-15 = system: HCT-15
HT-29 = system: HT-29

In the case of `OCCCNc1[nH]cnc2nncc1-2`, the GI50 (NCI-H226) is reported as > 100 µM (inactive), the GI50 (OVCAR-3) is reported as > 100 µM (inactive) and the GI50 (EKVX) is reported as > 100 µM (inactive). The GI50 (LOX IMVI) was > 100 µM (inactive), the GI50 (SN12C) was > 100 µM (inactive) and the GI50 (HCT-116) was > 100 µM (inactive). For the same compound, the GI50 (BT-549) was > 100 µM (inactive), the GI50 (PC-3) was > 100 µM (inactive) and the GI50 (Hs-578T) was > 100 µM (inactive). For the same compound, the GI50 (A549) was > 100 µM (inactive), the GI50 (OVCAR-8) was > 100 µM (inactive) and the GI50 (MCF7) was > 100 µM (inactive). The GI50 (TK-10) was > 100 µM (inactive), the GI50 (M14) was > 100 µM (inactive) and the GI50 (HOP-92) was > 100 µM (inactive). For the same compound, the GI50 (786-0) was > 100 µM (inactive), the GI50 (CCRF-CEM) was > 100 µM (inactive) and the GI50 (U-251) was > 100 µM (inactive). The GI50 (UACC-62) was > 100 µM (inactive), the GI50 (NCI-H522) was > 100 µM (inactive) and the GI50 (DU-145) was > 100 µM (inactive). The GI50 (SF-268) was > 100 µM (inactive), the GI50 (SNB-19) was > 100 µM (inactive) and the GI50 (HL-60) was > 100 µM (inactive). For the same compound, the GI50 (CAKI-1) was 9.82 µM (inactive), the GI50 (MDA-MB-435) was > 100 µM (inactive) and the GI50 (RXF 393) was > 100 µM (inactive). The GI50 (COLO 205) was > 100 µM (inactive), the GI50 (HOP-62) was > 100 µM (inactive) and the GI50 (NCI/ADR-RES) was > 100 µM (inactive). For the same compound, the GI50 (MOLT-4) was > 100 µM (inactive), the GI50 (UACC-257) was > 100 µM (inactive) and the GI50 (SNB-75) was > 100 µM (inactive). The GI50 (T47D) was > 100 µM (inactive), the GI50 (OVCAR-5) was > 100 µM (inactive) and the GI50 (IGROV-1) was > 100 µM (inactive). For the same compound, the GI50 (HCC 2998) was > 100 µM (inactive), the GI50 (A498) was > 100 µM (inactive) and the GI50 (MDA-MB-231) was > 100 µM (inactive). For the same compound, the GI50 (Malme-3M) was > 100 µM (inactive), the GI50 (OVCAR-4) was > 100 µM (inactive) and the GI50 (NCI-H23) was > 100 µM (inactive). For the same compound, the GI50 (SF-295) was > 100 µM (inactive), the GI50 (NCI-H460) was > 100 µM (inactive) and the GI50 (SW-620) was > 100 µM (inactive). For the same compound, the GI50 (MDA-N) was > 100 µM (inactive), the GI50 (RPMI-8226) was > 100 µM (inactive) and the GI50 (SF-539) was 41.1 µM (inactive). The GI50 (K562) was > 100 µM (inactive), the GI50 (ACHN) was > 100 µM (inactive) and the GI50 (SK-OV-3) was > 100 µM (inactive). For the same compound, the GI50 (UO-31) was > 100 µM (inactive), the GI50 (SK-MEL-5) was > 100 µM (inactive) and the GI50 (KM12) was > 100 µM (inactive). The GI50 (SK-MEL-28) was > 100 µM (inactive), the GI50 (SK-MEL-2) was > 100 µM (inactive) and the GI50 (HCT-15) was > 100 µM. The GI50 (HT-29) was > 100 µM (inactive).
In the case of `CCCn1c(=O)c2ccccc2[n+]2c(-c3ccc([N+](=O)[O-])cc3)csc12`, the GI50 (NCI-H226) is reported as 29.4 µM (inactive), the GI50 (EKVX) is reported as 42.7 µM (inactive) and the GI50 (LOX IMVI) is reported as 22.1 µM (inactive). The GI50 (SN12C) was 41.3 µM (inactive), the GI50 (HCT-116) was 23.8 µM (inactive) and the GI50 (BT-549) was 33.9 µM (inactive). The GI50 (PC-3) was 18.1 µM (inactive), the GI50 (Hs-578T) was 23.3 µM (inactive) and the GI50 (A549) was 47 µM (inactive). For the same compound, the GI50 (OVCAR-8) was 13.6 µM (inactive), the GI50 (MCF7) was 29.9 µM (inactive) and the GI50 (TK-10) was > 10 µM (inactive). For the same compound, the GI50 (M14) was 35.6 µM (inactive), the GI50 (HOP-92) was 32.4 µM (inactive) and the GI50 (786-0) was 26.2 µM (inactive). For the same compound, the GI50 (CCRF-CEM) was 27.2 µM (inactive), the GI50 (U-251) was 34.4 µM (inactive) and the GI50 (UACC-62) was 32.7 µM (inactive). The GI50 (NCI-H522) was 18 µM (inactive), the GI50 (DU-145) was 38.9 µM (inactive) and the GI50 (SF-268) was 41.8 µM (inactive). The GI50 (SNB-19) was 25.7 µM (inactive), the GI50 (HL-60) was 24.4 µM (inactive) and the GI50 (CAKI-1) was 40.9 µM (inactive). For the same compound, the GI50 (MDA-MB-435) was 38.6 µM (inactive), the GI50 (RXF 393) was 18.1 µM (inactive) and the GI50 (COLO 205) was 39.9 µM (inactive). The GI50 (HOP-62) was 18.9 µM (inactive), the GI50 (NCI/ADR-RES) was 7.67 µM (inactive) and the GI50 (MOLT-4) was 30.6 µM (inactive). The GI50 (UACC-257) was 27.7 µM (inactive), the GI50 (SNB-75) was 21.7 µM (inactive) and the GI50 (T47D) was 30.6 µM (inactive). For the same compound, the GI50 (OVCAR-5) was 17.8 µM (inactive), the GI50 (IGROV-1) was 20.3 µM (inactive) and the GI50 (HCC 2998) was 77.4 µM (inactive). For the same compound, the GI50 (A498) was 25.2 µM (inactive), the GI50 (MDA-MB-231) was 33.7 µM (inactive) and the GI50 (OVCAR-4) was 17.9 µM (inactive). The GI50 (NCI-H23) was 31 µM (inactive), the GI50 (SF-295) was 30.8 µM (inactive) and the GI50 (NCI-H460) was 21.9 µM (inactive). For the same compound, the GI50 (SW-620) was 43.9 µM (inactive), the GI50 (MDA-N) was 31.3 µM (inactive) and the GI50 (RPMI-8226) was 18 µM (inactive). For the same compound, the GI50 (SF-539) was 17.2 µM (inactive), the GI50 (K562) was 20.9 µM (inactive) and the GI50 (ACHN) was 35.9 µM (inactive). The GI50 (SK-OV-3) was 36.9 µM (inactive), the GI50 (UO-31) was 18.3 µM (inactive) and the GI50 (SK-MEL-5) was 18.6 µM (inactive). For the same compound, the GI50 (KM12) was 18.8 µM (inactive), the GI50 (SK-MEL-2) was 35.7 µM (inactive) and the GI50 (HCT-15) was 34.3 µM. The GI50 (HT-29) was 25 µM (inactive).

Source: ChEMBL document CHEMBL1201862, “PubChem BioAssay data set” (2004)
